From US20240316130A1 (priority 2023, published 2024) come the findings set out here.

The test system of one assay is B16F10 cells. Format: cell-based, murine. As to conditions: 24 hours.
The test system of the next assay is A9F1 cells. Format: cell-based.
The next assay has as its system MYXV. The assay is described as follows: microbe, parasite or virus in culture. Format: cell-based, myxoma virus.

“Also recorded” adds a separate entry of the source.

With `NC(=O)NCCC[C@H](N)C(=O)O` [citrulline, L-Citrulline], in the assay on B16F10 cells, the “rescue of MYXV replication by supplement” value is given as “support myxoma virus replication; also recorded: could also rescue MYXV replication”. Also, the “rescue of cytostasis by supplement” value in the assay on A9F1 cells is recorded as “could not be rescued”.

In the case of `N=C(N)NCCC[C@H](N)C(=O)O` [arginine], the “arginine concentration at which maximal viral replication occurs” value in the assay on MYXV is listed as “at least 100 μM”. In addition, the EC50 – broadly, the concentration at which the effect is half-maximal – in the assay on MYXV (Myxoma virus, 24 h, read-out: EC50 of exogenous arginine for production of new infectious MYXV progeny) was roughly 50 µM.
